ChEMBL document CHEMBL1201862, “PubChem BioAssay data set” (2004)
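Grown in 96-well plates, cells were treated for 48 hours with each compound at five concentrations. Insufficient inhibition: endpoint recorded as highest concentration tested. The concentration for 50% growth inhibition is given as GI50.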 The source made the active and inactive calls. No stated cut-off is given here; in the data, active = GI50 up to about 1.1 µM and inactive = higher.

Legend:
Assay in all cases: NCI tumour cell line growth inhibition, 48 h
786-0 = tested on: 786-0
A498 = tested on: A498
A549 = tested on: A549
ACHN = tested on: ACHN
BT-549 = tested on: BT-549
CAKI-1 = tested on: CAKI-1
CCRF-CEM = tested on: CCRF-CEM
COLO 205 = tested on: COLO 205
DU-145 = tested on: DU-145
EKVX = tested on: EKVX
HCC 2998 = tested on: HCC 2998
HCT-116 = tested on: HCT-116
HCT-15 = tested on: HCT-15
HOP-62 = tested on: HOP-62
HOP-92 = tested on: HOP-92
HT-29 = tested on: HT-29
Hs-578T = tested on: Hs-578T
K562 = tested on: K562
KM12 = tested on: KM12
M14 = tested on: M14
MCF7 = tested on: MCF7
MDA-MB-231 = tested on: MDA-MB-231
MDA-MB-435 = tested on: MDA-MB-435
MDA-N = tested on: MDA-N
MOLT-4 = tested on: MOLT-4
NCI-H23 = tested on: NCI-H23
NCI-H460 = tested on: NCI-H460
NCI-H522 = tested on: NCI-H522
NCI/ADR-RES = tested on: NCI/ADR-RES
OVCAR-4 = tested on: OVCAR-4
OVCAR-5 = tested on: OVCAR-5
OVCAR-8 = tested on: OVCAR-8
RPMI-8226 = tested on: RPMI-8226
RXF 393 = tested on: RXF 393
SF-268 = tested on: SF-268
SF-295 = tested on: SF-295
SF-539 = tested on: SF-539
SK-MEL-28 = tested on: SK-MEL-28
SK-MEL-2 = tested on: SK-MEL-2
SK-OV-3 = tested on: SK-OV-3
SN12C = tested on: SN12C
SNB-19 = tested on: SNB-19
SR = tested on: SR
SW-620 = tested on: SW-620
T47D = tested on: T47D
TK-10 = tested on: TK-10
U-251 = tested on: U-251
UACC-257 = tested on: UACC-257
UACC-62 = tested on: UACC-62
UO-31 = tested on: UO-31
HL-60 = tested on: HL-60
IGROV-1 = tested on: IGROV-1
LOX IMVI = tested on: LOX IMVI
NCI-H226 = tested on: NCI-H226
OVCAR-3 = tested on: OVCAR-3
PC-3 = tested on: PC-3
SK-MEL-5 = tested on: SK-MEL-5

Q: How did the GI50 (786-0) turn out when CCN(CC)CCNc1ccc2nnn3c4ccc(OCCN(CC)CC)cc4c(=O)c1c23 was run?
A: 21.6 µM (inactive)

Q: What about the GI50 (A498) of the same compound?
A: > 100 µM (inactive)

Q: What about the GI50 (A549) of the same compound?
A: 44.9 µM (inactive)

Q: What about the GI50 (ACHN) of the same compound?
A: 65.2 µM (inactive)

Q: And the GI50 (BT-549)?
A: > 100 µM (inactive)

Q: What about the GI50 (CAKI-1) of the same compound?
A: 66.1 µM (inactive)

Q: And the GI50 (CCRF-CEM)?
A: 16.4 µM (inactive)

Q: What about the GI50 (COLO 205) of the same compound?
A: 30.6 µM (inactive)

Q: And the GI50 (DU-145)?
A: 42.3 µM (inactive)

Q: What about the GI50 (EKVX) of the same compound?
A: 71 µM (inactive)

Q: And the GI50 (HCC 2998)?
A: > 100 µM (inactive)

Q: And the GI50 (HCT-116)?
A: 30 µM (inactive)

Q: And the GI50 (HCT-15)?
A: 64.6 µM

Q: And the GI50 (HOP-62)?
A: 19.4 µM (inactive)

Q: And the GI50 (HOP-92)?
A: 51.9 µM (inactive)

Q: And the GI50 (HT-29)?
A: 18.5 µM (inactive)

Q: What about the GI50 (Hs-578T) of the same compound?
A: > 100 µM (inactive)

Q: What about the GI50 (K562) of the same compound?
A: 38.6 µM (inactive)

Q: What about the GI50 (KM12) of the same compound?
A: 32.3 µM (inactive)

Q: And the GI50 (M14)?
A: > 100 µM (inactive)

Q: And the GI50 (MCF7)?
A: 33.6 µM (inactive)

Q: What about the GI50 (MDA-MB-231) of the same compound?
A: 23.1 µM (inactive)

Q: What about the GI50 (MDA-MB-435) of the same compound?
A: 49.5 µM (inactive)

Q: What about the GI50 (MDA-N) of the same compound?
A: 66.5 µM (inactive)

Q: What about the GI50 (MOLT-4) of the same compound?
A: 6.73 µM (inactive)

Q: What about the GI50 (NCI-H23) of the same compound?
A: 88.5 µM (inactive)

Q: What about the GI50 (NCI-H460) of the same compound?
A: 33.7 µM (inactive)

Q: What about the GI50 (NCI-H522) of the same compound?
A: 18.8 µM (inactive)

Q: And the GI50 (NCI/ADR-RES)?
A: 57.7 µM (inactive)

Q: What about the GI50 (OVCAR-4) of the same compound?
A: 16.3 µM (inactive)

Q: And the GI50 (OVCAR-5)?
A: > 100 µM (inactive)

Q: And the GI50 (OVCAR-8)?
A: 27.9 µM (inactive)

Q: And the GI50 (RPMI-8226)?
A: 26.8 µM (inactive)

Q: And the GI50 (RXF 393)?
A: 62.5 µM (inactive)

Q: What about the GI50 (SF-268) of the same compound?
A: 54.1 µM (inactive)

Q: What about the GI50 (SF-295) of the same compound?
A: 65.3 µM (inactive)

Q: What about the GI50 (SF-539) of the same compound?
A: 96.8 µM (inactive)

Q: What about the GI50 (SK-MEL-28) of the same compound?
A: > 100 µM (inactive)

Q: What about the GI50 (SK-MEL-2) of the same compound?
A: > 100 µM (inactive)

Q: And the GI50 (SK-OV-3)?
A: > 100 µM (inactive)

Q: And the GI50 (SN12C)?
A: 32.4 µM (inactive)

Q: And the GI50 (SNB-19)?
A: 48.5 µM (inactive)

Q: What about the GI50 (SR) of the same compound?
A: 19.4 µM (inactive)

Q: And the GI50 (SW-620)?
A: 38.2 µM (inactive)

Q: And the GI50 (T47D)?
A: > 100 µM (inactive)

Q: What about the GI50 (TK-10) of the same compound?
A: 28.5 µM (inactive)

Q: What about the GI50 (U-251) of the same compound?
A: 60.3 µM (inactive)

Q: And the GI50 (UACC-257)?
A: > 100 µM (inactive)

Q: What about the GI50 (UACC-62) of the same compound?
A: > 100 µM (inactive)

Q: And the GI50 (UO-31)?
A: 89.9 µM (inactive)

Q: What does the source list for O=C(CC(=O)Nc1cccc(C(=O)O)c1)Nc1cccc(C(=O)O)c1?
A: GI50 (786-0): > 100 µM (inactive); GI50 (A498): > 100 µM (inactive); GI50 (A549): > 100 µM (inactive); GI50 (ACHN): > 100 µM (inactive); GI50 (BT-549): > 100 µM (inactive); GI50 (CAKI-1): > 100 µM (inactive); GI50 (CCRF-CEM): > 100 µM (inactive); GI50 (COLO 205): > 100 µM (inactive); GI50 (DU-145): > 100 µM (inactive); GI50 (EKVX): > 100 µM (inactive); GI50 (HCC 2998): > 100 µM (inactive); GI50 (HCT-116): > 100 µM (inactive); GI50 (HCT-15): > 100 µM; GI50 (HL-60): > 100 µM (inactive); GI50 (HOP-62): > 100 µM (inactive); GI50 (HOP-92): > 100 µM (inactive); GI50 (HT-29): > 100 µM (inactive); GI50 (Hs-578T): > 100 µM (inactive); GI50 (IGROV-1): > 100 µM (inactive); GI50 (K562): > 100 µM (inactive); GI50 (KM12): > 100 µM (inactive); GI50 (LOX IMVI): > 100 µM (inactive); GI50 (M14): > 100 µM (inactive); GI50 (MCF7): > 100 µM (inactive); GI50 (MDA-MB-231): > 100 µM (inactive); GI50 (MDA-MB-435): > 100 µM (inactive); GI50 (MDA-N): > 100 µM (inactive); GI50 (MOLT-4): > 100 µM (inactive); GI50 (NCI-H226): > 100 µM (inactive); GI50 (NCI-H23): > 100 µM (inactive); GI50 (NCI-H460): > 100 µM (inactive); GI50 (NCI-H522): > 100 µM (inactive); GI50 (NCI/ADR-RES): > 100 µM (inactive); GI50 (OVCAR-3): > 100 µM (inactive); GI50 (OVCAR-4): > 100 µM (inactive); GI50 (OVCAR-8): > 100 µM (inactive); GI50 (PC-3): > 100 µM (inactive); GI50 (RPMI-8226): > 100 µM (inactive); GI50 (SF-268): > 100 µM (inactive); GI50 (SF-295): > 100 µM (inactive); GI50 (SF-539): > 100 µM (inactive); GI50 (SK-MEL-28): > 100 µM (inactive); GI50 (SK-MEL-2): > 100 µM (inactive); GI50 (SK-MEL-5): > 100 µM (inactive); GI50 (SN12C): > 100 µM (inactive); GI50 (SNB-19): > 100 µM (inactive); GI50 (SW-620): > 100 µM (inactive); GI50 (T47D): > 100 µM (inactive); GI50 (TK-10): > 100 µM (inactive); GI50 (U-251): > 100 µM (inactive); GI50 (UACC-257): > 100 µM (inactive); GI50 (UACC-62): 96.6 µM (inactive); GI50 (UO-31): > 100 µM (inactive)
